“Also recorded” adds a separate entry of the source. No end group written: not given here.
Legend:
[1] = test system: vascular cells of the apoaequorin-expressing mice; assay: Intracellular calcium ion increase (aequorin luminescence), blood vessel of apoaequorin-expressing mice; assay type: cell-based, mouse; conditions: for luminescence in the blood vessel: organ pieces, peptide final concentrations of 1 μmol/L and of 5 μmol/L
Description: (§1) A heart or blood vessel is collected from transgenic mice systemically expressing apoaequorin (WO02/010371) produced by introducing an apoaequorin gene expression vector into fertilized eggs. The obtained heart or blood vessel is cut finely into pieces, suspended in a medium containing coelenterazine, and then incubated to incorporate coelenterazine into the cells to form aequorin (a complex of apoaequorin and coelenterazine). Since aequorin luminesces upon binding to intracellular calcium ions, the relative luminescence level in cells before and after addition of a medium containing the peptide or a pharmaceutically acceptable salt thereof is measured in a luminometer every second over time and is used as an indicator of intracellular calcium ion concentration. Increase in the relative luminescence level due to addition of the peptide or pharmaceutically acceptable salt thereof confirms that the peptide or pharmaceutically acceptable salt thereof has the activity to increase intracellular calcium ion concentration.
(§2) Whether Peptides 1 to 5, 9 and 10 synthesized in Example 2 have the activity of increasing intracellular calcium ion concentration was investigated using the organs of transgenic mice introduced with the apoaequorin gene and systemically expressing apoaequorin (hereinafter referred to as apoaequorin-expressing mice). In apoaequorin-expressing mouse cells, light is emitted when apoaequorin binds to a calcium ion in the presence of the luminescent substrate coelenterazine and thus the intracellular calcium ion concentration can be monitored. Patent Document (WO02/010371) discloses the method for producing apoaequorin-expressing mice, method for evaluating biologically active substances that use biological samples derived from the mice, and experimental results of evaluating biologically active peptides using the mouse organs as shown below. […] Therefore, apoaequorin-expressing mice can be used in the evaluation of the physiological activities of novel peptides.
(§3) Apoaequorin-expressing mice were produced according to the method disclosed in Reference Example 4 of Patent Document (WO02/010371). The apoaequorin-expressing mice were sacrificed, individual organs including thymus, spleen, bone, blood vessel, heart, kidney, adrenal gland, pancreas, pituitary gland, and uterus, were removed; and each of the organs was cut into small cubes of approximately 1 to 2 mm^3. Next, in 5-mL tubes (Rohren-Tubes; manufactured by Sarstedt, No. 55.476), three portions of each of the prepared organs were added to 50 μL of a 10 μmol/L solution of coelenterazine (manufactured by Molecular Probes) dissolved in RPMI 1640 medium, and these were cultured at 37° C. for three hours. After culturing, RPMI 1640 medium was added, and then Peptides 1 to 5, 9 and 10 dissolved in RPMI 1640 medium were added 25 seconds after the addition of RPMI 1640 until each peptide had final concentrations of 1 μmol/L and of 5 μmol/L, and the relative luminescence levels were measured every second immediately after the addition of RPMI 1640 medium by using a luminometer (AutoLumat LB953, manufactured by Berthold).

thymus = assay: Aequorin luminescence, thymus of apoaequorin-expressing mice; assay type: cell-based, mouse; conditions: organ pieces, peptide final concentrations of 1 μmol/L and of 5 μmol/L
Excerpt: as §2, §3

uterus = assay: Aequorin luminescence, uterus of apoaequorin-expressing mice; assay type: cell-based, mouse; conditions: organ pieces, peptide final concentrations of 1 μmol/L and of 5 μmol/L
Excerpt: as §2, §3

[2] = test system: cardiac cells of the apoaequorin-expressing mice; assay: Intracellular calcium ion increase (aequorin luminescence), heart of apoaequorin-expressing mice; assay type: cell-based, mouse; conditions: for intracellular calcium concentration in cardiac cells (RLU per second): 1 μmol/L of peptide, added at 25 seconds; for luminescence in the heart: organ pieces, peptide final concentrations of 1 μmol/L and of 5 μmol/L
Description: as §1, §2, §3

[3] = test system: antiserum (rabbit, Peptide 7-KLH conjugate as antigen); assay: Binding specificity of antiserum by competitive RIA with [125I]-labeled Peptide 1; conditions: for inhibition of antiserum binding to [125I]-labeled Peptide 1: VGF-derived peptides, sequentially diluted
Description: As controls, reactions that use RIA buffer instead of the antiserum to measure non-specific binding, and reactions […] that use RIA buffer instead of VGF-derived peptide solutions to measure the maximum binding level were carried out. Reactions for non-specific binding were performed in quadruplicates, and the other reactions were performed in duplicates, and for each of the reactants, the immune complex was precipitated as in the above-mentioned antibody titer measurements, and its radioactivity (cpm) was measured. The average radioactivity of non-specific binding reaction is defined as non-specific binding level N, the radioactivity value for each VGF-derived peptide addition reaction is defined as Y, and the radioactivity value of maximum binding reaction is defined as Z. The percentage ratio (B/B0) of antiserum specific binding level (B) with peptide addition to the maximum binding level (B0), was determined using the following formula.
B/B0 (%)={(Y−N)/(Z−N)}×100
Accordingly, the amount of peptide that achieves 50% B/B0, more specifically, the amount of peptide that yields 50% inhibition of the maximum binding level, was used as an indicator of the peptide binding activity to the antiserum.
The amounts of peptide/tube used for performing the measurements were 0.5, 1, 2, 4, 8, 16, 32, 64, 128, 256, 512 and 1024 fmol for Peptide 1; 1, 2, 4, 8, 16, 32, 64, 128, 256, 512 and 1024 fmol for Peptide 2; 1, 3.3, 10, 33, 100, 333, 1000, 3300, 10,000, 33,000, 100,000, 333,000 and 1,000,000 fmol for Peptide 3; and 1,000, 10,000, 100,000 and 1,000,000 fmol for Peptide 8.

kidney = assay: Aequorin luminescence, kidney of apoaequorin-expressing mice; assay type: cell-based, mouse; conditions: organ pieces, peptide final concentrations of 1 μmol/L and of 5 μmol/L
Excerpt: (§4) Whether Peptides 1 to 5, 9 and 10 synthesized in Example 2 have the activity of increasing intracellular calcium ion concentration was investigated using the organs of transgenic mice introduced with the apoaequorin gene and systemically expressing apoaequorin (hereinafter referred to as apoaequorin-expressing mice). In apoaequorin-expressing mouse cells, light is emitted when apoaequorin binds to a calcium ion in the presence of the luminescent substrate coelenterazine and thus the intracellular calcium ion concentration can be monitored. Patent Document (WO02/010371) discloses the method for producing apoaequorin-expressing mice, method for evaluating biologically active substances that use biological samples derived from the mice, and experimental results of evaluating biologically active peptides using the mouse organs as shown below. […]
(§5) Apoaequorin-expressing mice were produced according to the method disclosed in Reference Example 4 of Patent Document (WO02/010371). […] After culturing, RPMI 1640 medium was added, and then Peptides 1 to 5, 9 and 10 dissolved in RPMI 1640 medium were added 25 seconds after the addition of RPMI 1640 until each peptide had final concentrations of 1 μmol/L and of 5 μmol/L, and the relative luminescence levels were measured every second immediately after the addition of RPMI 1640 medium by using a luminometer (AutoLumat LB953, manufactured by Berthold).

spleen = assay: Aequorin luminescence, spleen of apoaequorin-expressing mice; assay type: cell-based, mouse; conditions: organ pieces, peptide final concentrations of 1 μmol/L and of 5 μmol/L
Excerpt: as §2, §3

bone = assay: Aequorin luminescence, bone of apoaequorin-expressing mice; assay type: cell-based, mouse; conditions: organ pieces, peptide final concentrations of 1 μmol/L and of 5 μmol/L
Excerpt: as §4, §5

adrenal gland = assay: Aequorin luminescence, adrenal gland of apoaequorin-expressing mice; assay type: cell-based, mouse; conditions: organ pieces, peptide final concentrations of 1 μmol/L and of 5 μmol/L
Excerpt: as §4, §5

pituitary gland = assay: Aequorin luminescence, pituitary gland of apoaequorin-expressing mice; assay type: cell-based, mouse; conditions: organ pieces, peptide final concentrations of 1 μmol/L and of 5 μmol/L
Excerpt: as §2, §3

[4] = Effect on rat blood pressure (anesthetized rats, bolus injection); assay type: in vivo; conditions: 300 nmol in saline, bolus injection into external jugular vein, anesthetized male Wistar rats
Description: Catheters are inserted into the external jugular vein and internal carotid artery of an anesthetized animal such as rat or the like, and arterial pressure is measured continuously by connecting the catheter in the internal carotid artery to a blood pressure monitor. The peptide or pharmaceutically acceptable salt dissolved in physiological saline is administered through the external jugular vein.
Wistar rats (male, 10-weeks old, 250 to 300 g) were anesthetized by intraperitoneally administering Pentobarbital at 50 mg/kg body weight. Catheters were inserted into the external jugular vein and internal carotid artery of the anesthetized rats; the catheter in the internal carotid artery was connected to a blood pressure monitor; 300 nmol of Peptide 2 dissolved in saline (100 μL) was administered from the external jugular vein by bolus injection; and blood pressure was measured continuously.

Substance	luminescence in the blood vessel [1]	luminescence in the thymus (thymus)	luminescence in the uterus (uterus)	intracellular calcium concentration in cardiac cells (RLU per second) [2]	luminescence in the heart [2]	inhibition of antiserum binding to [125I]-labeled Peptide 1 [3]	antiserum binding relative to the Peptide 1 binding ([3]; fraction of the Peptide 1 binding)	amount required to show the same degree of inhibition as Peptides 1 and 2 ([3]; relative to Peptides 1 and 2)	luminescence in the kidney (kidney)	luminescence in the spleen (spleen)	luminescence in the bone (bone)	luminescence in the adrenal gland (adrenal gland)	luminescence in the pituitary gland (pituitary gland)	intracellular calcium concentration in vascular cells (RLU per second) ([1]; 5 μmol/L of peptide, added at 25 seconds)	change in average arterial blood pressure [4]
Peptide 3: positions 554 to 583 of the amino acid sequence of human VGF, termini unmodified (H-TLQPPSALRRRHYHHALPPSRHYPGREAQA-OH)	luminescence was observed	luminescence was observed	luminescence was observed	increase of intracellular calcium concentration	luminescence was observed	dose-dependent inhibition of antiserum binding but the inhibition was weak	1/10000	approximately 10,000 folds	luminescence was observed	luminescence was observed	luminescence was observed	luminescence was observed	luminescence was observed	–	–
Peptide 2: positions 554 to 577 of human VGF (SEQ ID NO: 3) with C-terminal amide (TLQPPSALRRRHYHHALPPSRHYP-NH2)	luminescence was observed	luminescence was observed	luminescence was observed	increase of intracellular calcium concentration	luminescence was observed	same degree of quantity-dependent inhibition	–	–	–	luminescence was observed	luminescence was observed	–	–	increase of intracellular calcium concentration	obvious increase in blood pressure; also recorded: increase of blood pressure
